According to PMC10726465, “Synthesis and Evaluation of Small Molecule Inhibitors of the Androgen Receptor N-Terminal Domain” (ACS Medicinal Chemistry Letters, 2023):
Values after ≈ are worked out from the molar mass of the structure shown.

Experiments:
[1] = In vivo pharmacokinetic profile in male CD-1 mice; settings: mouse
Description: Encouraged by the promising in vitro profile, compound 16 was advanced, and a pharmacokinetic (PK) profile was obtained in male CD-1 mice (Table 6).

[2] = molecular target: T1, androgen receptor (AR) (Homo sapiens, UniProt P10275)
T1 sequence (P10275 1-920): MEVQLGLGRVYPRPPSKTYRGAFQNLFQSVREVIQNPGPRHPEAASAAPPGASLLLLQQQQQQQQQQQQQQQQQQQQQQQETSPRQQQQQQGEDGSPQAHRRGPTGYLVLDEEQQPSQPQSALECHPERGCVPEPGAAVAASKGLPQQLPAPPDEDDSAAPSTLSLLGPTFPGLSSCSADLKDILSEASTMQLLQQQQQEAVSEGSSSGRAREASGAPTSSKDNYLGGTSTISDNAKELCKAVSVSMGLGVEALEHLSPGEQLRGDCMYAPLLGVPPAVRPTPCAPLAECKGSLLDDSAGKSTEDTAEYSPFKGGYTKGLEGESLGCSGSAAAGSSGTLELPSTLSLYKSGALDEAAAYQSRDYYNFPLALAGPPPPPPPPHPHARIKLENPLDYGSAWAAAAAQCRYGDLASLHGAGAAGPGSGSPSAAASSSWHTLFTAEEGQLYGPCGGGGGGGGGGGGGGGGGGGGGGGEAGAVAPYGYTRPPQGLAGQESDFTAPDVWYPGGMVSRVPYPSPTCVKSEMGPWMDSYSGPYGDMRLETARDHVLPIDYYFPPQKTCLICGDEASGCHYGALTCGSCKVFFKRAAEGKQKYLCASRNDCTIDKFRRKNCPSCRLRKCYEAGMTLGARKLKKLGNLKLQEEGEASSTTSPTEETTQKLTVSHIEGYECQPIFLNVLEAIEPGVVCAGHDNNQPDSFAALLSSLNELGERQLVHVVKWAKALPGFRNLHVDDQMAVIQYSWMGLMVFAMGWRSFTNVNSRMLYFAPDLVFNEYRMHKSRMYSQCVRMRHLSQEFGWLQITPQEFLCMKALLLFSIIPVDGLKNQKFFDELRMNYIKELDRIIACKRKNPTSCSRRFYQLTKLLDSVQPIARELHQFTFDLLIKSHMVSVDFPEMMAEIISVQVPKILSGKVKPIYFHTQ
Description: (§1) VCaP cells, obtained from the American Type Culture Collection, were maintained in Dulbecco’s Modified Eagles Medium (DMEM) supplemented with 10% foetal bovine serum. Cells were maintained at 37°C without antibiotics in a humidified atmosphere
Transient transfection and Luciferase Activity Assay:
Cells at 70–80% confluence in 24 well plates, were transferred to DMEM
300ng/well of the firefly reporter plasmid, GRE2-TATA-luc using JetPEI (PolyPLUS Transfection) according to the manufacturers’ protocol.
replaced with fresh DMEM +5% CSS containing either DMSO (vehicle control) or 0– 30 µM small molecules together with 1nM DHT. Twenty four hours later, medium was aspirated, cells were washed with PBS and extracted with Passive Lysis Buffer
Cell debris was removed by centrifugation at 13,000 xg for 5min and supernatants collected. Luciferase activity was measured in triplicate, using an in-house luciferase assay buffer (13 mM MgSO4 7H2O, 30 mM
amount of total cellular protein.
(§2) Inhibition of hormone-dependent expression of prostate specific antigen (PSA):
(§3) VCaP prostate cells were treated with 1 nM DHT in the absence or presence of inhibitor. After 24 hours cells were harvested and PSA detected by Western blotting and normalised against β-actin.
Luciferase activity in cells treated with small molecules was determined as a percentage of the untreated control, which was set at 100%. Plots of activity against small molecule concentration (log) were analysed in GraphPad PRISM 5 and IC50 values for each small molecule determined.

[3] = molecular target: CYP 2D6 (Homo sapiens, UniProt P10635); experiment: CYP450 inhibition (2D6); type: in vitro ADME
CYP 2D6, sequence (P10635 whole entry): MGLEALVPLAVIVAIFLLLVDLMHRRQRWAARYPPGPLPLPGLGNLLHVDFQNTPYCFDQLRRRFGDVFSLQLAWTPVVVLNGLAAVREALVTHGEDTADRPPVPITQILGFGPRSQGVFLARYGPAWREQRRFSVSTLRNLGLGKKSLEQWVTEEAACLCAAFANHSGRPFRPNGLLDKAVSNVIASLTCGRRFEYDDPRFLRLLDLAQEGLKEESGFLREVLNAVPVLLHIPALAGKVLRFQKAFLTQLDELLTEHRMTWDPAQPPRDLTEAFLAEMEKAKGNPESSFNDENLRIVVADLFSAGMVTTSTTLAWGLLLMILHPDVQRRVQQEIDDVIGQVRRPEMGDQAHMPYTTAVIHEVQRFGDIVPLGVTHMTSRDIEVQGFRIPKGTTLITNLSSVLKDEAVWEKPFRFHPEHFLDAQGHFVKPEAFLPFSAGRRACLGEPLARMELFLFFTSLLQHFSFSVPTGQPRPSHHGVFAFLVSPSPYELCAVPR

[4] = Thermodynamic aqueous solubility; type: physicochemical
[5] = molecular target: hERG channel (Homo sapiens, UniProt Q12809); experiment: hERG channel inhibition, Q-patch clamp assay
hERG channel, sequence (Q12809 whole entry): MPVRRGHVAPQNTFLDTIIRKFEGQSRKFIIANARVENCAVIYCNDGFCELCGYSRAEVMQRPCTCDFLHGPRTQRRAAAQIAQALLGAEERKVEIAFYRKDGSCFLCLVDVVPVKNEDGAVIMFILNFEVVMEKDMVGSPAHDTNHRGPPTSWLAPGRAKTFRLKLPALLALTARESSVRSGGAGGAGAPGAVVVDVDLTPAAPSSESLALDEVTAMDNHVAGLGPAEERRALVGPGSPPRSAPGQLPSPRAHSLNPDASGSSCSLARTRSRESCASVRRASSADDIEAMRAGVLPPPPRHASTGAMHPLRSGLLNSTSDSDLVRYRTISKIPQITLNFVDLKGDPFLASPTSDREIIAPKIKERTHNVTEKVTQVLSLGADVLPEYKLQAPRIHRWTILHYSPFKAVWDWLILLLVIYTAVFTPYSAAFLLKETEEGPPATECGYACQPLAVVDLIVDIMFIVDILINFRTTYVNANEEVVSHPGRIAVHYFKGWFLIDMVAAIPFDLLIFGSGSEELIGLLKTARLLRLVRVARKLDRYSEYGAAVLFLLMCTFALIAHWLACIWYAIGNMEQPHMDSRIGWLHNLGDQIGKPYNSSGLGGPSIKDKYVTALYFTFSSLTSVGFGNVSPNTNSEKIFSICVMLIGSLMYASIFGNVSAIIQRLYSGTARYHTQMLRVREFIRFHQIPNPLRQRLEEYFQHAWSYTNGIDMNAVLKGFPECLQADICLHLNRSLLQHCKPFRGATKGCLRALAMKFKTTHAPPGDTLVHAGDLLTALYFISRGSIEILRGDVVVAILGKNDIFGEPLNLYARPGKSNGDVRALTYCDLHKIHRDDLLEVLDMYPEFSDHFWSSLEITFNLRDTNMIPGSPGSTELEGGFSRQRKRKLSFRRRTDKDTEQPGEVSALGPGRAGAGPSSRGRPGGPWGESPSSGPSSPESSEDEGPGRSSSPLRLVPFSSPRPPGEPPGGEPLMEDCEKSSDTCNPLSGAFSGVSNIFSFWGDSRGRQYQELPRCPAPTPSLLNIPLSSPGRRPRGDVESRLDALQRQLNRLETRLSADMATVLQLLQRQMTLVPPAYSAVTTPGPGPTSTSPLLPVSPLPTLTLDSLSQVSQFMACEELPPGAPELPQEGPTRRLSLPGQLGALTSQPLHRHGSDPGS

[6] = test system: prostate-specific antigen (PSA) expression; experiment: Inhibition of hormone-dependent expression of PSA in VCaP cells (Western blot); type: cell-based; settings: 10 μM, 1 nM DHT, 24 h
Description: In addition to this, we evaluated hormone-dependent expression of prostate-specific antigen (PSA) in VCaP cells (see the Supporting Information).
as §1, §2, §3

[7] = in vitro; type: in vitro ADME; settings: human, Caco-2
Description: (§4) DMPK and physicochemical data were generated by Cyprotex Ltd, Alderley Park, Macclesfield, UK and Pharmaron Inc, Ningbo, China.

[8] = test system: Caco2 cell; experiment: in vitro; type: in vitro ADME
Description: as §4

[9] = molecular target: T2, AR-v (ARNTD–DBD) (Homo sapiens, UniProt P10275); experiment: AR-v splice variant activity in PC3 cells transfected with ARNTD–DBD expression plasmid and GRE2-luciferase reporter; settings: PC-3, read-out: inhibition of AR-v activity
T2 sequence (P10275 1-632 limits assumed): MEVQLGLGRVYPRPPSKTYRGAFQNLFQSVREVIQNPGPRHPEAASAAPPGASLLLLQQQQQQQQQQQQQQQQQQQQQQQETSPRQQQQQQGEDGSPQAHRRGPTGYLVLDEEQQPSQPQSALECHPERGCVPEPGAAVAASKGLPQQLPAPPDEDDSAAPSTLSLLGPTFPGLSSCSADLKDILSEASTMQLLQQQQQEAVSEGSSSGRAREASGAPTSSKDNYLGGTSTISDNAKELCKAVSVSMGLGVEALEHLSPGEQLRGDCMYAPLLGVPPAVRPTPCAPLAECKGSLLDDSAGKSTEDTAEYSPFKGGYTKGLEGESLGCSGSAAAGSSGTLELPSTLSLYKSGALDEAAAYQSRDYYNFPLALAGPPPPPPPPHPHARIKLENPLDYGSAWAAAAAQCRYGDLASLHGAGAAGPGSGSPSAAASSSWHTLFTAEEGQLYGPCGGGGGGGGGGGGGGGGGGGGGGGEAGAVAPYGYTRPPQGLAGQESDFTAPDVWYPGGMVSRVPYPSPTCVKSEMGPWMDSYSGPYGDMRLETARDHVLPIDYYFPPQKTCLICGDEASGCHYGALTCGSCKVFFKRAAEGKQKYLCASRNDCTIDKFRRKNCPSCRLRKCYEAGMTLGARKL
Description: To this end, AR-v splice variant activity was determined through transfection of PC3 cells with an ARNTD–DBD expression plasmid and a GRE2-luciferase reporter gene (Figure 3).[43]

[10] = Human liver microsome stability; type: in vitro ADME; settings: human liver microsomes
Description: PSA expression (%inhibition) 34%
Plots of activity against
values for each small molecule determined.
Macclesfield, UK and Pharmaron Inc, Ningbo, China.

[11] = molecular target: CYP 3A4 (Homo sapiens, UniProt P08684); experiment: CYP450 inhibition (3A4); type: in vitro ADME
CYP 3A4, sequence (P08684 whole entry): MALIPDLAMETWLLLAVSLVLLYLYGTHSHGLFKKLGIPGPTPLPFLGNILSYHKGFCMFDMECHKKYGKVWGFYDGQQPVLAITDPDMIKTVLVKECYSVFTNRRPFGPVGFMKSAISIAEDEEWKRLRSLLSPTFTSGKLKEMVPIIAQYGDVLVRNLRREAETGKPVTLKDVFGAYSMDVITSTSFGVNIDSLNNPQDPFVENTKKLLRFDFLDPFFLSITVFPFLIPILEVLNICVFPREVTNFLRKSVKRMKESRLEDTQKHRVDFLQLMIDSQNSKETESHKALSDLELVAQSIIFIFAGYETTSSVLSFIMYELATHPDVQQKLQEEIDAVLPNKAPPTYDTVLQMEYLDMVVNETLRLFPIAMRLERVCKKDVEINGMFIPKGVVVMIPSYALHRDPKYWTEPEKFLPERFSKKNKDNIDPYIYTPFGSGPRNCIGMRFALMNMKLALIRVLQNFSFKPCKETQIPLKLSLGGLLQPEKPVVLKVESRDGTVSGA

[12] = Plasma protein binding; type: in vitro ADME; settings: mouse

CSc1ccc(C(N)=O)cc1-c1ccc2c(cnn2C)c1 [Compound 16]
AUC0–t ([1]; iv 1 mg/kg): 131 ng·h/mL
AUC0–∞ ([1]; iv 1 mg/kg): 132 ng·h/mL
CL ([1]; iv 1 mg/kg): 126 mL min^–1 kg^–1
Cmax ([1]; iv 1 mg/kg): 432 ng/mL
Vss_obs ([1]; iv 1 mg/kg): 1.38 L/kg
t1/2 ([1]; iv 1 mg/kg): 17.4 min
AUC0–t ([1]; po 10 mg/kg): 173 ng·h/mL
AUC0–∞ ([1]; po 10 mg/kg): 208 ng·h/mL
Cmax ([1]; po 10 mg/kg): 195 ng/mL
F (oral bioavailability) ([1]; po 10 mg/kg): 16%
Tmax ([1]; po 10 mg/kg): 0.25
t1/2 ([1]; po 10 mg/kg): 240 min
increase in potency over initial hit compound 7 ([2]; VCaP GRE2-luciferase IC50 ratio): 60 fold
Lipophilic Ligand Efficiency (LLE) ([2]; from VCaP GRE2-luciferase IC50 and cLogP): 4.7
IC50 ([2]; read-out: VCaP GRE2-luciferase IC50, VCaP cells, 1 nM DHT, 24 h, 0–30 µM compound): 0.12 µM
CYP450 inhibition, 2D6 isoform (in words) [3]: no inhibition
IC50 [3]: > 25 µM
solubility [4]: 2.6 µM (≈ 0.773 µg/mL)
hERG channel inhibition (in words) ([5]; Q-patch clamp assay): no hERG channel inhibition
IC50 ([5]; read-out: hERG IC50): > 10 µM
PSA expression (% inhibition) [6]: 34%
Papp A→B ([7]; apical to basolateral, read-out: Caco2 permeability Papp A2B): 33.1 ×10⁻⁶ cm/s
Papp B→A ([7]; basolateral to apical, read-out: Caco2 permeability Papp B2A): 39.4 ×10⁻⁶ cm/s
efflux ratio ([7]; read-out: Caco2 efflux ratio): 1.2
Caco2 permeability Papp A2B ([8]; apical to basolateral): 3.31 ×10⁻⁶ cm/s
Caco2 permeability Papp B2A ([8]; basolateral to apical): 3.94 ×10⁻⁶ cm/s
inhibition at 10 µM [9]: 35%
microsomal CLint ([10]; read-out: HLM CLint): 25.6 µL/min/mg
half-life ([10]; read-out: HLM t1/2): 54 min
CYP450 inhibition, 3A4 isoform (in words) [11]: no inhibition
IC50 [11]: > 25 µM
fraction unbound [12]: 0.069
